Assay [1] relates to bovine microvascular endothelial cells. The experiment in a line: Morphogenesis of bovine microvascular endothelial cells. It is filed as cell-based. The settings on record: SPP 100 nM to 1 μM, data not shown.
Assay [2] relates to HUVEC. The assay is described as follows: Adherens junction assembly in HUVEC, immunofluorescence of VE-cadherin and catenins. It is filed as cell-based, human. The settings on record: 500 nM, 1 hour. Here is the method: To investigate whether SPP regulates the formation of adherens junction in endothelial cells, HUVEC were plated at a density of 2×10^4 cells/em^2 for 2 days, starved in lipid-depleted medium and treated without (cont) or with SPP (500 nM for 1 hours). For these experiments, after treatment cells were washed with ice-cold PBS, fixed with 4% formaldehyde at room temperature or methanol at −20° C. for 15 minutes. In the case of formaldehyde fixation, cells were permeabilized with 0.2% TX-100. After washing with PBS, cells were stained with antibodies as follows: VE-cadherin ([…], Transduction Labs, San Diego, Calif.; 1 μg/mL, Santa Cruz Biotechnology, Inc., Santa Cruz, Calif.), α-catenin ([…], Transduction Labs), β-catenin (1.25 μg/mL, Transduction Labs; 0.4 μg/mL, Santa Cruz), γ-catenin ([…], Transduction Labs). The primary antibody staining was visualized with FITC-conjugated goat anti-rabbit or TRITC conjugated sheep anti-mouse (1:1000, Cappel, now owned by ICN, Costa Mesa, Calif.) for 30 minutes at room temperature, and imaged on a Zeiss Axiovert 100TV fluorescence microscope. […]

The subject of assay [3] is HUVEC. The experiment in a line: SPP-induced intracellular calcium in HUVEC (Indo-1 fluorescence). It is filed as cell-based, human. Particulars: HUVEC stimulated with SPP. Here is the method: Functional assays were used to test for the presence of Gi-coupled and Gq-coupled SPP receptors in HUVEC. First, intracellular calcium levels were measured in response to SPP. For these experiments, cells were grown on 100-mm tissue culture dishes and loaded with the fluorescent calcium-sensitive dye, Indo-1 acetoxymethyl ester (Indo-1/AM, 5 μg/mL; Molecular Probes, Inc., Eugene, Oreg.), for 30 min at 37° C. Cells were then washed with medium M199, briefly trypsinized (0.05% porcine trypsin/0.02% EDTA in HBSS (JRH Biosciences, Lenexa, Kans.), and the trypsin activity was immediately neutralized with soybean trypsin inhibitor (5 μg/mL, Sigma Chemical Co., St. Louis, Mo.). Following centrifugation (250 g×5 min), cells were resuspended in M199 medium to a density of 2.7×10^5 cells/mL. Cells were then stimulated with different doses of SPP. Some cells were pretreated with the Gi inhibitor pertussis toxin (PTx, 500 ng-/mL) for 16 hours. Calcium ion concentration was then quantified by measuring changes in indo-1 fluorescence in 2 mL of cell suspension by a Hitachi F-2000 fluorescence Spectrophotometer with constant stirring. Fluorescence emission was monitored at 400 and 475 nm with excitation at 352 nm. [Ca^+2]1 was calculated as described in Volpi and Berlin, J. Cell Biol., Vol. 107, 2533-39 (1988).

For assay [4], the system named is ERK-2. The experiment in a line: ERK-2 immune complex kinase assay in HUVEC. It is filed as cell-based, human. The settings on record: SPP 10-500 nM, 10 minutes, starved HUVEC. The procedure: As a second functional assay, ERK-2 kinase activity was measured in response to SPP treatment. For these experiments, endothelial cells were starved for 19 hours, and then stimulated with SPP for 10 minutes. Cells were then lysed, and ERK-2 kinase activity was measured by an immune complex kinase assay using myelin basic protein (MBP) as substrate. Some cells were pretreated with pertussis toxin (PTx) at 200 ng/mL, or PD98059 at 10 μM for 2 hours prior to stimulation.

Assay [5] relates to HUVEC. The assay is described as follows: C2-Ceramide-induced apoptosis of HUVEC (DNA fragmentation). Particulars: SPP 10 to 500 nM, 1 μM C2-Ceramide, 12 hours. It is filed as cell-based, human. Here is the method:
The ability of SPP to protect endothelial cells from apoptosis was investigated. In these experiments, HUVEC were treated with 1 μM C2-Ceramide for 12 hours and apoptosis was measured in the following manner: HUVEC were plated onto coverslips and allowed to grow for 2 days. Cells were washed three times with medium M199, and treated with 1 μM C2-Ceramide (Biomol) for 12 hours in the presence or absence of SPP. Subsequently, cells were fixed with methanol at −20° C. for 5 minutes, air dried, and stained with Hoechst 33258 dye (0.5 μg/mL for 5 minutes; Sigma Chemical Co., St. Louis, Mo.). The apoptotic nuclei were identified with the aid of a Zeiss Axiovert 100TB fluorescence microscope. For quantification, HUVEC were labeled with ^3Hmethyl-thymidine (5 μCi/mL, NEN DuPont) for 24 hours. Following three washes with medium M199, cells were treated with C2-Ceramide as above. 12 hours later, cells were extracted with lysis buffer (5 mM tris, pH 7.4, 2 mM EDTA, 0.5% TX-100) at 4° C. for 20 minutes. After centrifugation (15,000 g, 20 minutes), the radioactivity present in the supernatant and sediment was measured by liquid scintillation counting. The percentage of DNA fragmentation was determined as ((supernatant cpm)/(supernatant cpm+sediment cpm))×100%.
SPP+PTx and SPP+PD98059 (10 μM), respectively, for 2 hours prior to the addition of C2-Ceramide (1 μM) and SPP (10 to 500 nM). Data are mean±standard deviation of triplicate determinations from a representative experiment which was repeated two times. […] A similar effect was also seen when growth factor withdrawal, and 15-deoxy Δ^12,14 prostaglandin J2 were used as apoptotic stimuli (data not shown). […] Therefore SPP induced endothelial cell survival requires the Gi/ERK signaling pathway.

Assay [6] deals with MATRIGEL plugs implanted into athymic mice. The assay is described as follows: MATRIGEL implant model of subcutaneous angiogenesis in athymic mice. It is filed as in vivo. The procedure: To disclose if SPP regulates angiogenesis in vivo, A MATRIGEL implant model of subcutaneous angiogenesis in […] mice was used. In these experiments, female […] mice (4-6 weeks old) were injected subcutaneously with 0.4 mL MATRIGEL (approximate protein concentration 9.9 mg/mL, Collaborative Research) premixed with vehicle (fatty acid-free BSA, 115 μg/mL, Sigma), or FGF-2 (1.3 μg/mL) in the absence or presence of various concentrations of SPP. Seven days later, MATRIGEL plugs were harvested along with underlying skin and the gross angiogenic response was recorded under a Zeiss Stemi SV6 dissecting microscope. For quantification, MATRIGEL plugs were fixed with 4% paraformaldehyde in PBS, dehydrated in ethanol and xylene, embedded in paraffin, and sections subjected to hematoxylin and eosin staining. Angiogenesis was quantified by direct counting of vessels containing red blood cells residing in the stroma interface and the MATRIGEL implant. Each treatment involved 4 mice. 2 random sections from each were quantified and represented as mean±standard deviation. […]
In these experiments, MATRIGEL plugs were fixed, dehydrated, embedded, and sections were subjected to hematoxylin and eosin staining. Angiogenesis was quantified by direct counting of vascular structures as described. Vascular density for each treatment was quantified and represented as mean±standard deviation (n=4). […]

For `CCCCCCCCCCCCC/C=C/[C@@H](O)[C@@H](N)COP(=O)(O)O` [SPP, sphingosine-1-phosphate], the “morphogenesis of bovine microvascular endothelial cells” value in assay [1] was “induced morphogenesis”. For the same compound, in assay [2], the “VE-cadherin, α-, β- and γ-catenin localization at cell-cell junctions” value is “dramatically increased”. The intracellular calcium response result in assay [3] was “robust calcium response”. In assay [4], the ERK activity entry is listed as “activated ERK activity in a dose-dependent manner”. Further, in assay [5], the “protection from apoptosis induced by C2-Ceramide” value is given as “significantly protected”. Also, in assay [6] (MATRIGEL plug without FGF-2), the “angiogenesis with SPP alone” value is “did not induce significant angiogenesis”. Further, in assay [6] (SPP + FGF-2 1.3 μg/mL in MATRIGEL plug, seven days), the “FGF-2 induced angiogenesis (vascular density)” value was “dramatically enhanced”.

The values above are taken from patent US20020142982A1, “Method for regulating angiogenesis” (priority 1999, published 2002).
